The source of these data is ChEMBL document CHEMBL4627384, “l-Thyroxin and the Nonclassical Thyroid Hormone TETRAC Are Potent Activators of PPARγ” (J Med Chem, 2020).

The target in series [1] is T1, Peroxisome proliferator-activated receptor gamma (Homo sapiens) (UniProt P37231).
T1 sequence (whole entry): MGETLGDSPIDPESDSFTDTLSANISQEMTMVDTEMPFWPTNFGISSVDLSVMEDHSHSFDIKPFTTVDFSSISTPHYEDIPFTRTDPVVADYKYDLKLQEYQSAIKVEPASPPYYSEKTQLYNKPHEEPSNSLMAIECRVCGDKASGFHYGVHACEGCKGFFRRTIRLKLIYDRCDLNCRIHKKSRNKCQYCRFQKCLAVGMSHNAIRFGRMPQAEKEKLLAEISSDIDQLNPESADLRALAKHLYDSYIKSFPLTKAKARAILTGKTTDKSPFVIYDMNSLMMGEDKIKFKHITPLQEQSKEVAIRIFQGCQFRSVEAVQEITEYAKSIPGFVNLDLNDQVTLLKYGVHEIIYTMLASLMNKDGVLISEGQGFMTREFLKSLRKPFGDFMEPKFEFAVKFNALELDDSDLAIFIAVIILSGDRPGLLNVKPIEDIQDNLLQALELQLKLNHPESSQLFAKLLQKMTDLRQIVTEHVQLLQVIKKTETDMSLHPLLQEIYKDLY
Description: Agonist activity at PPARgamma in human HepG2 cells without THRB knockdown assessed as induction of CD36 expression at 30 uM incubated for 8 hrs in by Western blot analysis. The class given is cell-based. A general note: A western blot detects proteins with antibodies after separation by electrophoresis.

Series [2] is described as follows: Drug metabolism in human HepG2 cells assessed as 2-(4-(4-hydroxy-3,5-diiodophenoxy)-3,5-diiodophenyl)acetic acid formation at 10 uM incubated for 24 hrs by LC-MS analysis. The format is ADME, cell-based. The note with it: hepg2, 24 h.
For series [3], the target named is T1, Peroxisome proliferator-activated receptor gamma (Homo sapiens). Description: Agonist activity at PPARgamma in human HepG2 cells with THRB knockdown assessed as induction of CD36 expression at 30 uM incubated for 8 hrs in by Western blot analysis. The format is cell-based.
A short description of series [4]: Drug metabolism in human HepG2 cells assessed as (S)-2-amino-3-(4-(4-hydroxy-3-iodophenoxy)-3,5-diiodophenyl)propanoic acid formation at 10 uM incubated for 24 hrs by LC-MS analysis. The class given is ADME, cell-based. The note with it: hepg2, 24 h.
Series [5] has as its target Luciferin 4-monooxygenase (Photinus pyralis) (UniProt P08659). Description: Activation of firefly luciferase expressed in HEK293T cells at 0.1 uM incubated for 14 to 16 hrs by reporter gene assay. The format is cell-based. The settings on record: HEK-293T. (Reporter assays use an easily measured gene product as a stand-in for the process of interest.)
Series [6] has as its target T2, Peroxisome proliferator-activated receptor gamma (Mus musculus) (UniProt P37238).
T2 sequence (whole entry): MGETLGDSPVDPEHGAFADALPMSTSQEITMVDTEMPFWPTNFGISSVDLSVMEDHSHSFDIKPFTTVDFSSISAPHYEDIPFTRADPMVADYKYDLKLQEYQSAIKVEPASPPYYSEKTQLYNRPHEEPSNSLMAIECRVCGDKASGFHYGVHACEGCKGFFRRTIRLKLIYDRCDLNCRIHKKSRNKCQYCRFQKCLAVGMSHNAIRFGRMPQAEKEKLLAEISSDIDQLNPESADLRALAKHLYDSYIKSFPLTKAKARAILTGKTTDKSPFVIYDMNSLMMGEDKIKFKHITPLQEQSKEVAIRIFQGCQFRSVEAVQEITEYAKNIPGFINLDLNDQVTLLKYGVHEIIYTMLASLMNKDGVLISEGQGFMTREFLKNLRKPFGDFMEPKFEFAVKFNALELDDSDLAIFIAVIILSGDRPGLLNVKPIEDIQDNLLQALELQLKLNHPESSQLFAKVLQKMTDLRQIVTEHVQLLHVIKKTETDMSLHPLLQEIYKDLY
Description: Agonist activity at PPARgamma in mouse 3T3L1 adipocytes assessed as induction of CD36 mRNA expression at 1 uM by qRT-PCR analysis. The note with it: 3T3-L1. The format is cell-based.

Series [7] concerns the target T1, Peroxisome proliferator-activated receptor gamma (Homo sapiens). Briefly: Agonist activity at PPARgamma in human HepG2 cells with THRB knockdown assessed as induction of CD36 expression at 1 uM incubated for 8 hrs in by Western blot analysis. The format is cell-based.
Series [8] concerns the target T3, Thyroid hormone receptor alpha (Homo sapiens, UniProt P10827).
T3 sequence (P10827 whole entry): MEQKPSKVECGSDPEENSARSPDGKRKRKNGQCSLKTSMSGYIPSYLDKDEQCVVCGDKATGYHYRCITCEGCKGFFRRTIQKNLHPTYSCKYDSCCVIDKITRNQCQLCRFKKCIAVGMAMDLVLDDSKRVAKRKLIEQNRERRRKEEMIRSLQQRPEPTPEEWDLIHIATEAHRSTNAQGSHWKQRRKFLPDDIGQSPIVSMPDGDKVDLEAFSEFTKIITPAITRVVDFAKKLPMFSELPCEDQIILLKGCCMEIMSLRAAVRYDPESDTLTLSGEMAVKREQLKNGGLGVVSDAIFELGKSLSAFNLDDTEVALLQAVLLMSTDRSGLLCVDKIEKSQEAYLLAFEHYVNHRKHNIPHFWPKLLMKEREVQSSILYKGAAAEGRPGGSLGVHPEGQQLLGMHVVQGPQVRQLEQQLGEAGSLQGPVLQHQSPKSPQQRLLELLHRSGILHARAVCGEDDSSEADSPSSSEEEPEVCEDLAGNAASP
Briefly: Agonist activity at THRalpha (unknown origin) incubated for 14 to 16 hrs by dual glo luciferase reporter gene assay.

For series [9], the target named is T4, Hepatocyte nuclear factor 4-alpha (Homo sapiens) (UniProt P41235).
T4 sequence (whole entry): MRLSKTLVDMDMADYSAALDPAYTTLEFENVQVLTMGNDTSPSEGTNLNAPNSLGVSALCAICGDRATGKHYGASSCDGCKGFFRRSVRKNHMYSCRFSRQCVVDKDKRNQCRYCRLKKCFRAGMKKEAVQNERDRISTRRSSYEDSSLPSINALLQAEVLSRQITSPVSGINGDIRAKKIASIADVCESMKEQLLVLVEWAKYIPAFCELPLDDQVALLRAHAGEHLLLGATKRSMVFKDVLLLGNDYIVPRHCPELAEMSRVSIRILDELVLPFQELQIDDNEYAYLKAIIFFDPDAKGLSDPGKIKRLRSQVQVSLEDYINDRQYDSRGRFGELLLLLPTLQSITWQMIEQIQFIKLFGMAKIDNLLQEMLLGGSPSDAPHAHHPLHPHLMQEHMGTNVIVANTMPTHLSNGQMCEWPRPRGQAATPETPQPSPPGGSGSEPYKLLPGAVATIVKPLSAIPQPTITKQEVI
Description: Agonist activity at recombinant human pFA-CMV-fused HNF4alpha LBD expressed in HEK293T cells transfected with pFR-luciferase plasmid and pRL-SV40 plasmid at 0.001 to 0.3 uM incubated for 14 to 16 hrs by dual glo luciferase reporter gene assay. The format is cell-based. The note with it: HEK-293T.

In series [10] the target is T1, Peroxisome proliferator-activated receptor gamma (Homo sapiens). Description: Agonist activity at N-terminal GFP-fused PPARgamma LBD (unknown origin) assessed as biotin-labeled CBP recruitment incubated for 2 hrs by HT-FRET assay.
Series [11] shares this target. Description: Agonist activity at N-terminal GFP-fused PPARgamma LBD (unknown origin) assessed as biotin-labeled SRC-1 recruitment incubated for 2 hrs by HT-FRET assay.
Series [12] has the same target. Briefly: Agonist activity at PPARgamma in human HepG2 cells assessed as induction of CD36 mRNA expression at 1 uM incubated for 8 hrs in presence of PPARgamma antagonist GW9662 by qPCR analysis. The format is cell-based. (Quantitative PCR measures a nucleic acid by following its amplification.)

Activity calls are given as the source filed them. No cut-off for these calls is given here.

Chain of Luciferin 4-monooxygenase (Photinus pyralis) (P08659 whole entry): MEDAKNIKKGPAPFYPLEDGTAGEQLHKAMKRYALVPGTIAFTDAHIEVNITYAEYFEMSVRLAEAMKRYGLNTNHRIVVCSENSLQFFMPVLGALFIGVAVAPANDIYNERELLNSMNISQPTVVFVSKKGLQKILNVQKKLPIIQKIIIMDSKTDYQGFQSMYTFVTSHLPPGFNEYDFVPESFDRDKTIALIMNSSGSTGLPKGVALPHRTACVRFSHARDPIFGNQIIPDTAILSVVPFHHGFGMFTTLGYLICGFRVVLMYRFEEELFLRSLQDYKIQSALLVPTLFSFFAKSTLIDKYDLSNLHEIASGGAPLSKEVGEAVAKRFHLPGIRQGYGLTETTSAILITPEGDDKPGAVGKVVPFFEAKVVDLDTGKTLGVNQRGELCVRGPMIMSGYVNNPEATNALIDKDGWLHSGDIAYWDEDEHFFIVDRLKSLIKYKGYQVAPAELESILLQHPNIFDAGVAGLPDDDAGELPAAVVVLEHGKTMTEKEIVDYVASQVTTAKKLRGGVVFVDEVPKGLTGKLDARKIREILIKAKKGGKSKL

For `N[C@@H](Cc1cc(I)c(Oc2cc(I)c(O)c(I)c2)c(I)c1)C(=O)O` [LEVOTHYROXINE], the result in series [1] and in series [3] was Active. For the same compound, the Drug metabolism in [2] turned out to be 44 ng; in series [4], 174 ng.

For `O=C(O)Cc1cc(I)c(Oc2cc(I)c(O)c(I)c2)c(I)c1` [TETRAC], the result in [5], in [9] and in [12] was inactive. Besides, the result in series [6], in series [7], in [10] and in series [11] was Active. For the same compound, a half-maximal response in [8] (EC50) required 0.02 µM.
